Data taken from the supplement of paper PMC10307832.

Legend:
Test in all cases: relative viability (nuclei count vs DMSO), 5 days (fraction); higher = more cells survive
MLN4924 + Vorinostat = compound: NS(=O)(=O)OC[C@@H]1C[C@@H](n2ccc3c(N[C@H]4CCc5ccccc54)ncnc32)C[C@@H]1O [MLN4924] + O=C(CCCCCCC(=O)Nc1ccccc1)NO [Vorinostat] (partner 1 µM)
How it was run: (§1)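 The day after seeding in 1536-well plates, lung cancer cell lines were treated by pin tool with a single drug, or with a fixed anchor-drug dose together with five library-drug doses (not always all listed) in √10 steps. After 5 days, a combined fix-and-stain solution (final 0.05% Triton X-100, 1% formaldehyde, 1 ug/ml Hoechst) was added. Nuclei counted on 4× images gave relative viability as treated counts over vehicle counts, reported as the median of duplicate plates.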

GSK126 + Decitabine = compound: CC[C@H](C)N1C=C(C2=C(C=C(C=C21)C3=CN=C(C=C3)N4CCNCC4)C(=O)NCC5=C(C=C(NC5=O)C)C)C [GSK126] + Nc1ncn([C@H]2C[C@H](O)[C@@H](CO)O2)c(=O)n1 [Decitabine] (partner 2 µM)
How it was run: as §1

GSK126 + Vorinostat = compound: CC[C@H](C)N1C=C(C2=C(C=C(C=C21)C3=CN=C(C=C3)N4CCNCC4)C(=O)NCC5=C(C=C(NC5=O)C)C)C [GSK126] + O=C(CCCCCCC(=O)Nc1ccccc1)NO [Vorinostat] (partner 1 µM)
How it was run: as §1

GSK126 + Crizotinib = compound: CC[C@H](C)N1C=C(C2=C(C=C(C=C21)C3=CN=C(C=C3)N4CCNCC4)C(=O)NCC5=C(C=C(NC5=O)C)C)C [GSK126] + C[C@@H](Oc1cc(-c2cnn(C3CCNCC3)c2)cnc1N)c1c(Cl)ccc(F)c1Cl [Crizotinib] (partner 1 µM)
How it was run: as §1

| Cell Line | relative viability (MLN4924 + Vorinostat; first compound 0.04 µM) | relative viability (MLN4924 + Vorinostat; first compound 0.1265 µM) | relative viability (MLN4924 + Vorinostat; first compound 0.4 µM) | relative viability (MLN4924 + Vorinostat; first compound 1.265 µM) | relative viability (MLN4924 + Vorinostat; first compound 4 µM) | relative viability (GSK126 + Decitabine; first compound 0.08 µM) | relative viability (GSK126 + Decitabine; first compound 0.253 µM) | relative viability (GSK126 + Decitabine; first compound 0.8 µM) | relative viability (GSK126 + Decitabine; first compound 2.53 µM) | relative viability (GSK126 + Decitabine; first compound 8 µM) | relative viability (GSK126 + Vorinostat; first compound 0.08 µM) | relative viability (GSK126 + Vorinostat; first compound 0.253 µM) | relative viability (GSK126 + Vorinostat; first compound 0.8 µM) | relative viability (GSK126 + Vorinostat; first compound 2.53 µM) | relative viability (GSK126 + Vorinostat; first compound 8 µM) | relative viability (GSK126 + Crizotinib; first compound 0.08 µM) | relative viability (GSK126 + Crizotinib; first compound 0.253 µM) | relative viability (GSK126 + Crizotinib; first compound 0.8 µM) | relative viability (GSK126 + Crizotinib; first compound 2.53 µM) | relative viability (GSK126 + Crizotinib; first compound 8 µM) |
| --- | --- | --- | --- | --- | --- | --- | --- | --- | --- | --- | --- | --- | --- | --- | --- | --- | --- | --- | --- | --- |
| NCI-H23 | 0.521 | 0.441 | 0.197 | 0.134 | 0.142 | 0.314 | 0.337 | 0.3 | 0.268 | 0.334 | 0.936 | 0.627 | 0.639 | 0.632 | 0.527 | 0.662 | 0.486 | 0.485 | 0.523 | 0.653 |
| NCI-H358 | 0.621 | 0.479 | 0.264 | 0.0895 | 0.0817 | 0.231 | 0.2 | 0.207 | 0.229 | 0.218 | 0.767 | 0.708 | 0.644 | 0.68 | 0.672 | 0.733 | 0.577 | 0.667 | 0.608 | 0.395 |
| NCI-H1944 | 0.543 | 0.539 | 0.613 | 0.203 | 0.158 | 0.526 | 0.413 | 0.419 | 0.433 | 0.411 | 0.656 | 0.524 | 0.601 | 0.566 | 0.594 | 1.3 | 1.08 | 1.1 | 1.05 | 1.23 |
| NCI-H1755 | 0.711 | 0.494 | 0.466 | 0.338 | 0.261 | 0.696 | 0.68 | 0.684 | 0.662 | 0.714 | 0.8 | 0.719 | 0.74 | 0.794 | 0.58 | 0.842 | 0.915 | 0.898 | 0.86 | 0.765 |
| A-427 | 0.546 | 0.403 | 0.309 | 0.231 | 0.237 | 0.586 | 0.63 | 0.565 | 0.559 | 0.568 | 0.863 | 0.833 | 0.865 | 0.958 | 0.896 | 0.898 | 1.01 | 0.857 | 0.856 | 0.84 |
| SW 1573 | 0.48 | 0.521 | 0.14 | 0.0422 | 0.0551 | 0.648 | 0.463 | 0.431 | 0.573 | 0.517 | 1.02 | 0.704 | 0.681 | 0.735 | 0.852 | 0.868 | 0.82 | 0.751 | 0.84 | 0.785 |
| PC-14 | 0.81 | 0.781 | 0.154 | 0.0306 | 0.0361 | 0.215 | 0.2 | 0.166 | 0.255 | 0.213 | 0.768 | 0.732 | 0.623 | 0.745 | 0.692 | 0.839 | 0.989 | 0.922 | 0.892 | 0.799 |
| LOU-NH91 | 0.581 | 0.938 | 0.661 | 0.475 | 0.506 | 0.831 | 0.813 | 0.838 | 0.793 | 0.823 | 0.909 | 0.878 | 0.781 | 0.957 | 0.905 | 0.759 | 0.71 | 0.737 | 0.773 | 0.727 |
| BEN | 0.434 | 0.463 | 0.431 | 0.268 | 0.238 | 0.834 | 0.658 | 0.78 | 0.901 | 0.744 | 0.658 | 0.528 | 0.503 | 0.617 | 0.617 | 0.892 | 0.87 | 0.832 | 0.823 | 0.671 |
| NCI-H2085 | 0.769 | 0.829 | 0.837 | 0.635 | 0.45 | 0.551 | 0.511 | 0.588 | 0.615 | 0.518 | 0.851 | 0.813 | 0.804 | 0.841 | 0.948 | 0.879 | 0.966 | 0.951 | 0.778 | 0.887 |
| LCLC-103H | 0.763 | 0.771 | 0.372 | 0.252 | 0.282 | 0.795 | 0.855 | 0.797 | 0.737 | 0.759 | 0.888 | 0.906 | 0.77 | 0.786 | 0.761 | 1.07 | 1.18 | 1.01 | 1.01 | 1 |
| ABC-1 | 0.946 | 1.15 | 0.572 | 0.279 | 0.363 | 1.14 | 0.907 | 0.885 | 1 | 1 | 1.19 | 1.08 | 1.05 | 1.11 | 1.01 | 1.06 | 1.16 | 1.23 | 1.17 | 0.937 |
| NCI-H661 | 0.601 | 0.619 | 0.389 | 0.317 | 0.382 | 0.626 | 0.506 | 0.498 | 0.535 | 0.563 | 0.779 | 0.746 | 0.734 | 0.716 | 0.69 | 0.924 | 1.04 | 0.967 | 0.787 | 0.787 |
| H3255 | 0.668 | 0.642 | 0.334 | 0.239 | 0.304 | 0.479 | 0.628 | 0.665 | 0.502 | 0.684 | 0.821 | 0.865 | 0.842 | 0.817 | 0.794 | 1.02 | 0.814 | 0.819 | 0.866 | 0.794 |
| EMC-BAC-2 | 0.39 | 0.392 | 0.236 | 0.179 | 0.279 | 1.05 | 0.974 | 0.878 | 0.893 | 0.936 | 0.427 | 0.4 | 0.442 | 0.451 | 0.499 | 0.772 | 0.765 | 0.718 | 0.723 | 0.701 |
| NCI-H1666 | 0.697 | 0.623 | 0.653 | 0.443 | 0.444 | 0.731 | 0.755 | 0.755 | 0.82 | 0.726 | 1.15 | 1 | 0.912 | 0.978 | 1.11 | 1.33 | 0.838 | 0.938 | 1.04 | 1.23 |
